Data set [1] addresses T1, rabbit reticulocyte 15-LO (Oryctolagus cuniculus, UniProt P12530).
T1 construct: Fifteen-lipoxygenase was obtained from phenylhydrazine-treated rabbits and purified per the method of Rapoport; from tissue; host or cells: reticulocytes of phenylhydrazine-treated rabbits
T1 sequence (P12530 1-663): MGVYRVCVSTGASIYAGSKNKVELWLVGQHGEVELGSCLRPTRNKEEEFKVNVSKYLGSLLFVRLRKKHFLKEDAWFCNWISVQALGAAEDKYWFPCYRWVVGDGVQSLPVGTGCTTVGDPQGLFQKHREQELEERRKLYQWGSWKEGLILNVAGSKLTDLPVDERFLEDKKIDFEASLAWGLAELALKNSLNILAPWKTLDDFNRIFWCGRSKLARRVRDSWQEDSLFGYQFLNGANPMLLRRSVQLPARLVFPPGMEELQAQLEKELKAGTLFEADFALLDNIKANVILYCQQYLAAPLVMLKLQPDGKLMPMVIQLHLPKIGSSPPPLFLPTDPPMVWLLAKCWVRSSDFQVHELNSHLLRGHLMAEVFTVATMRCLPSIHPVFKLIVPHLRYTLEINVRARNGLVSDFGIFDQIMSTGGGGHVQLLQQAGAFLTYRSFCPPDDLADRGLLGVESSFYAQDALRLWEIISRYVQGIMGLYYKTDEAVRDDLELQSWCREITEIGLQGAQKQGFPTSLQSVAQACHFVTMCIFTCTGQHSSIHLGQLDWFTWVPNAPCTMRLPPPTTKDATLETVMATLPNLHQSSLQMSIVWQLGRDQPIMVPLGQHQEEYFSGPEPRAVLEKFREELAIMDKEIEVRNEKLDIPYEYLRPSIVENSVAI
Nature of the data set: Rabbit Reticulocyte 15-LO Assay (h15LO). It counts as biochemical. The settings on record: Table 2; for IC50: 2U rabbit reticulocyte 15-LO, 174 μM linoleic acid, 15 minutes at 4° C. In outline:
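Linoleic acid oxidation to 13-HPODE measured at 4° C. over 15 minutes, using 174 μM substrate and 2U enzyme purified from phenylhydrazine-treated rabbits in PBS/0.2% Na cholate. Product peak areas calibrated with authentic 13-HODE; inhibition expressed versus maximal reaction.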

Our source for the melting point, IC50 and inhibition values is patent US6528528B2 (Warner-Lambert Company, priority 1997, dated 2003).

As a reminder, the melting point is the temperature, or range, at which the solid turns liquid. As a reminder, the IC50 is the concentration at which inhibition is half-maximal. Low readings indicate higher potency, high ones lower potency.

Molecule `COc1ccc(C(=O)Nc2ccc(Cl)c(Cl)c2)cc1NC(=S)Nc1cc(Cl)cc(Cl)c1` [Example 97, N-(3,4-Dichlorophenyl)-3-[3-(3,5-dichlorophenyl)-thioureido]-4-methoxy-benzamide] had a melting point of 189 to 191 °C. In data set [1], the IC50 was 19 nM.

`COc1ccc(C(=O)Nc2ccccc2)cc1NC(=S)Nc1ccccc1C` [Example 98, 4-Methoxy-N-phenyl-3-(3-o-tolyl-thioureido)-benzamide] came in with a melting point of 172 to 174 °C. Moreover, inhibition in data set [1] was half-maximal at 1000 nM (IC50).

The molecule `COc1ccc(C(=O)Nc2ccccc2)cc1NC(=S)Nc1cc(C)cc(C)c1` [Example 99, 3-[3-(3,5-Dimethylphenyl)-thioureido]-4-methoxy-N-phenyl-benzamide] yielded a melting point of 203 to 205 °C. Moreover, in data set [1], the midpoint of inhibition, the IC50, lay at 11 nM.

`COc1ccc(C(=O)Nc2ccc(C)c(C)c2)cc1NC(=S)Nc1cccc(C)c1` [Example 102, N-(3,4-Dimethylphenyl)-4-methoxy-3-(3-m-tolyl-thioureido)-benzamide] came in with a melting point of 155 to 160 °C. This molecule also came in with an IC50 in data set [1] of 170 nM.

Regarding `COc1ccc(C(=O)Nc2ccc(C)c(Cl)c2)cc1NC(=S)Nc1cc(Cl)cc(Cl)c1` [Example 104, N-(3-Chloro-4-methylphenyl)-3-[3-(3,5-dichlorophenyl)-thioureido]-4-methoxy-benzamide], the melting point fell in the range of 195 to 196 °C. Half-maximal inhibition in data set [1] (IC50) was put at 13 nM.

In the case of `COc1ccc(C(=O)Nc2ccc(Cl)c(Cl)c2)cc1NC(=S)Nc1ccc(S(N)(=O)=O)cc1` [Example 105, N-(3,4-Dichlorophenyl)-4-methoxy-3-[3-(4-sulfamoyl-phenyl)-thioureido]-benzamide], the melting point fell in the range of 190 to 193 °C. This molecule also registered an IC50 in data set [1] of 14 nM.

Turning to `CSc1ccc(C(=O)Nc2ccccc2)cc1NC(=S)Nc1cc(Cl)cc(Cl)c1` [Example 106, 3-[3-(3,5-Dichlorophenyl)-thioureido]-4-methylsulfanyl-N-phenyl-benzamide], the melting point lay within 172 to 175 °C. In addition, the midpoint of inhibition in data set [1], the IC50, lay at 11 nM.

For the molecule `COc1ccc(C(=O)Nc2ccc(F)c(F)c2)cc1NC(=S)Nc1cc(Cl)cc(Cl)c1` [Example 107, 3-[3-(3,5-Dichlorophenyl)-thioureido]-N-(3,4-difluoro-phenyl)-4-methoxy-benzamide], the melting point was 180 to 183 °C. For the same molecule, half-maximal inhibition in data set [1] (IC50) was put at 9 nM.

`COc1ccc(C(=O)Nc2cccc(Cl)c2)cc1NC(=S)Nc1ccc(F)cc1` [Example 108, N-(3-Chlorophenyl)-3-[3-(4-fluorophenyl)-thioureido]-4-methoxy-benzamide]: the melting point was 184 to 185 °C. In data set [1], the IC50 is 34 nM.

As to `COc1ccc(S(=O)(=O)Nc2ccccc2)cc1NC(=S)Nc1cc(Cl)cc(Cl)c1` [Example 109, 3-[3-(3,5-Dichlorophenyl)-thioureido]-4-methoxy-N-phenyl-benzenesulfonamide], the melting point fell in the range of 163 to 165 °C. Moreover, in data set [1] (0.25 h, @ 10 μM, read-out: h15LO % @ 10 μM), the inhibition at 10 µM came to 26%.

With `CCc1ccc(C(=O)Nc2ccccc2)cc1NC(=S)Nc1cccc(C(F)(F)F)c1` [Example 110, 4-Ethyl-N-phenyl-3-[3-(3-trifluoromethylphenyl)-thioureido]-benzamide], the melting point lay in the range of 166 to 167 °C. In data set [1], this molecule displayed an IC50 of 290 nM.

Molecule `CCc1ccc(C(=O)Nc2ccc(F)c(F)c2)cc1NC(=S)Nc1cccc(C(F)(F)F)c1` [Example 111, 4-Ethyl-N-(3,4-difluorophenyl)-3-[3-(3-trifluoromethyl-phenyl)-thioureido]-benzamide] showed a melting point of 169 to 170 °C. This molecule came in with an IC50 in data set [1] of 79 nM.

`COc1ccc(C(=O)Nc2cccnc2)cc1NC(=S)Nc1cccc(C(=O)O)c1` [Example 112, 3-{3-[2-Methoxy-5-(pyridin-3-ylcarbamoyl)-phenyl]-thioureido}-benzoic acid] yielded a melting point of 191 to 192 °C. In addition, in data set [1], the IC50 is 26 nM.

`COc1ccc(C(=O)Nc2ccccc2)cc1NC(=S)Nc1cccc(C(=O)O)c1` [Example 113, 3-[3-(2-Methoxy-5-phenylcarbamoyl-phenyl)-thioureido]-benzoic Acid] came in with a melting point of 196 to 197 °C. Further, in data set [1], the IC50 is 52 nM.

`O=C(Nc1ccc(F)c(NC(=S)Nc2cccc(C(F)(F)F)c2)c1)c1ccc(Cl)c(Cl)c1` [Example 114, 3,4-Dichloro-N-{4-fluoro-3-[3-(3-trifluoromethylphenyl)-thioureido]-phenyl}-benzamide] had a melting point of 172 to 174 °C. The molecule also came in with an IC50 in data set [1] of 120 nM.

Molecule `COc1ccc(NC(=O)c2ccc(Cl)c(Cl)c2)cc1NC(=S)Nc1cc(Cl)cc(Cl)c1` [Example 115, 3,4-Dichloro-N-{3-[3-(3,5-dichlorophenyl)-thioureido]-4-methoxyphenyl}-benzamide] yielded a melting point of 183 to 186 °C. The molecule further had a half-maximal inhibitory concentration (IC50) in data set [1] of 44 nM.

With `COc1ccc(C(=O)Nc2ccccc2)cc1NS(=O)(=O)c1cc(Cl)cc(Cl)c1` [Example 118, 3-(3,5-Dichloro-benzenesulfonylamino)-4-methoxy-N-phenyl-benzamide], the melting point fell in the range of 222 to 228 °C. Further, inhibition in data set [1] was half-maximal at 49 nM (IC50).

Molecule `COc1ccc(C(=O)Nc2ccccc2)cc1NS(=O)(=O)c1ccccc1` [Example 120, 3-Benzenesulfonylamino-4-methoxy-N-phenyl-benzamide] yielded a melting point of 190 to 194 °C. This molecule also returned an IC50 in data set [1] of 40 nM.

For `COc1ccc(S(=O)(=O)Nc2cc(C(=O)Nc3ccccc3)ccc2OC)cc1` [Example 121, 3-(4-Methoxy-benzenesulfonylamino)-4-methoxy-N-phenyl-benzamide], the melting point is 184 to 186 °C. The IC50 in data set [1] is 25 nM.

`COc1ccc(C(=O)Nc2ccccc2)cc1NS(=O)(=O)c1cccc([N+](=O)[O-])c1` [Example 122, 3-(3-Nitro-benzenesulfonylamino)-4-methoxy-N-phenyl-benzamide] gave a melting point of 208 to 210 °C. In data set [1], this molecule had an IC50 of 187 nM.

Regarding `COc1ccc(C(=O)Nc2ccccc2)cc1NS(=O)(=O)c1cccc(Cl)c1` [Example 123, 3-(3-Chloro-benzenesulfonylamino)-4-methoxy-N-phenyl-benzamide], the melting point was 197 to 199 °C. The molecule further yielded an IC50 in data set [1] of 31 nM.

Consider `COc1ccc(C(=O)Nc2ccccc2)cc1NS(=O)(=O)c1ccc(C)cc1` [Example 124, 3-(4-Methyl-benzenesulfonylamino)-4-methoxy-N-phenyl-benzamide], for which the melting point is 200 to 202 °C. The midpoint of inhibition in data set [1], the IC50, lay at 48 nM.

For the molecule `COc1ccc(C(=O)Nc2ccccc2)cc1NS(=O)(=O)c1ccc(F)cc1` [Example 125, 3-(4-Fluoro-benzenesulfonylamino)-4-methoxy-N-phenyl-benzamide], the melting point was in the range of 209 to 211 °C. This molecule also gave an IC50 in data set [1] of 28 nM.

Consider `COc1ccc(C(=O)Nc2ccccc2)cc1NS(=O)(=O)c1cc(Br)c(Br)s1` [Example 126, 3-(4,5-Dibromothiophene-2-sulfonylamino)-4-methoxy-N-phenyl-benzamide], for which the melting point was in the range of 205 to 210 °C. Moreover, the midpoint of inhibition in data set [1], the IC50, lay at 48 nM.

In turn, `COc1ccc(C(=O)Nc2ccccc2)cc1NS(=O)(=O)c1ccccc1Cl` [Example 127, 3-(2-Chlorobenzenesulfonylamino)-4-methoxy-N-phenyl-benzamide] displayed a melting point of 107 to 109 °C. The molecule further gave an IC50 in data set [1] of 167 nM.

Molecule `COc1ccc(C(=O)Nc2ccccc2)cc1NS(=O)(=O)c1ccc(C(F)(F)F)cc1` [Example 128, 3-(4-Trifluoromethyl-benzenesulfonylamino)-4-methoxy-N-phenyl-benzamide] gave a melting point of 197 to 198 °C. The molecule further showed an IC50 in data set [1] of 54 nM.

Regarding `CCCCS(=O)(=O)Nc1cc(C(=O)Nc2ccccc2)ccc1OC` [Example 129, 3-(Butane-1-sulfonylamino)-4-methoxy-N-phenyl-benzamide], the melting point was 182 to 183 °C. In data set [1], the IC50 is 79 nM.

`COc1ccc(C(=O)Nc2ccccc2)cc1NS(=O)(=O)c1cccc2cccnc12` [Example 130, 3-(Quinoline-8-sulfonylamino)-4-methoxy-N-phenyl-benzamide] had a melting point of 187 to 188 °C. For the same molecule, inhibition in data set [1] was half-maximal at 402 nM (IC50).

Consider `COc1ccc(C(=O)Nc2ccccc2)cc1NS(=O)(=O)c1sc(NC(C)=O)nc1C` [Example 131, 3-(2-Acetylamino-4-methylthiazole-5-sulfonylamino)-4-methoxy-N-phenyl-benzamide], for which the melting point is 260 to 261 °C. In data set [1], this molecule had an IC50 of 609 nM.

Molecule `COc1ccc(C(=O)Nc2ccccc2)cc1NS(=O)(=O)c1cc(Cl)sc1Cl` [Example 132, 3-(2,5-Dichlorothiophene-3-sulfonylamino)-4-methoxy-N-phenyl-benzamide] yielded a melting point of 189 to 190 °C. Moreover, the IC50 in data set [1] turned out to be 115 nM.
